Experiments:
[1] = biological target: PIM1 (Homo sapiens, UniProt P11309); assay: KINOMEscan Kd (DiscoverX); assay type: binding
[2] = biological target: FLT3 (D835H) (Homo sapiens, UniProt P36888, D835H); assay: KINOMEscan Kd, specific screen against FLT3 mutants; assay type: binding
Method: (§1) Dissociation constants (Kd) and inhibition levels of FLT3 mutants were measured at DiscoverX using the KINOMEscan^TM Profiling Service (KdELECT).

[3] = biological target: FLT3 (D835V) (Homo sapiens, UniProt P36888, D835V); assay: as above; assay type: binding
Method: as §1

[4] = biological target: FLT3 (D835Y) (Homo sapiens, UniProt P36888, D835Y); assay: as above; assay type: binding
Method: as §1

[5] = biological target: FLT3 (ITD) (Homo sapiens, UniProt P36888, ITD); assay: as above; assay type: binding
Method: as §1

[6] = biological target: FLT3 (ITD, D835V) (Homo sapiens, UniProt P36888, D835V/ITD); assay: as above; assay type: binding
Method: as §1

[7] = biological target: FLT3 (ITD, F691L) (Homo sapiens, UniProt P36888, F691L/ITD); assay: as above; assay type: binding
Method: as §1

[8] = biological target: FLT3 (K663Q) (Homo sapiens, UniProt P36888, K663Q); assay: as above; assay type: binding
Method: as §1

[9] = biological target: FLT3 (N841I) (Homo sapiens, UniProt P36888, N841I); assay: as above; assay type: binding
Method: as §1

[10] = biological target: FLT3 (R834Q) (Homo sapiens, UniProt P36888, R834Q); assay: as above; assay type: binding
Method: as §1

[11] = Pharmacokinetics after oral and intravenous administration; assay type: in vivo, rats (Sprague Dawley); settings: male, plasma, Rat, Dose PO/IV 25/1 mg/kg
Method: therapeutic potential in acute myeloid leukemia
sheet for further calculations.
Three male Beagle dogs were administered

[12] = Metabolic stability, liver S9 fraction; assay type: in vitro ADME; settings: Mouse, 37 °C, read-out: Liver S9 fraction t1/2 (converted)
[13] = Metabolic stability, liver S9 fraction; assay type: in vitro ADME; settings: Human, 37 °C, read-out: Liver S9 fraction t1/2 (converted)
[14] = Metabolic stability, liver microsomes; assay type: in vitro ADME; settings: Mouse, 37 °C, read-out: Liver microsomes t1/2 (converted)
[15] = Metabolic stability, liver microsomes; assay type: in vitro ADME; settings: Human, 37 °C, read-out: Liver microsomes t1/2 (converted)
[16] = biological target: T1, CYP2D6 (Homo sapiens, UniProt P10635); assay: CYP isoforms inhibition; assay type: in vitro ADME; settings: 5-dose, 3-fold dilution starting at 30 µM
T1 construct: Cambridge Bioscience Limited (ran the assay)
T1 sequence (P10635 whole entry, canonical isoform): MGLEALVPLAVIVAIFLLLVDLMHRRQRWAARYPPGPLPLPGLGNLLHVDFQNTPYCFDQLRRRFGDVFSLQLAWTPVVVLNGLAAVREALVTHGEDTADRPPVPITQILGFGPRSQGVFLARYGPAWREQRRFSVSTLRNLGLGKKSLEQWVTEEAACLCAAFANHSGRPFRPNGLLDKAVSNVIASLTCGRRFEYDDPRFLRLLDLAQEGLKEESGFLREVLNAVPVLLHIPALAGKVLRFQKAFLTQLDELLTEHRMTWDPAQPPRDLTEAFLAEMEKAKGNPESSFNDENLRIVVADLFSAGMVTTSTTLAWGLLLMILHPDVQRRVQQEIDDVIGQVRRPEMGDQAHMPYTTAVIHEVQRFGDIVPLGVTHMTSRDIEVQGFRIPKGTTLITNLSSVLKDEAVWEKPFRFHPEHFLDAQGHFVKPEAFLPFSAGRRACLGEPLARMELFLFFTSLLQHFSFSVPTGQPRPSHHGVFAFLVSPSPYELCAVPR
Method: or absence of enzyme cofactors. The assay was performed microsomes. (Supplementary Table 7).
with the respective reference samples (i.e. without measured at Cambridge Bioscience Limited (except
cofactors). After incubation, drug transformation by liver CYP1A2 inhibition which was measured in-house). […]
The control compound
The analysis of two standard compounds (i.e. positive a very weak potential for CYP inhibition with IC50
and negative controls) was included. […]

[17] = Total blood cell counts in mice with MV-4-11 tumors; settings: treatment day 15
Text: All animals were handled in strict accordance with good animal practice as defined by the relevant national and local animal welfare bodies. SCID and SCID/beige C.B-17 mice were provided by Harlan Laboratories or Charles River Laboratories, and were maintained in pathogen free conditions. For the xenograft experiments, age-matched (9-11 weeks old) females were used. 5×10^6 of MV-4-11 or MOLM-16 cells were suspended in a mixture (1:1, v:v) of PBS with Matrigel (BD Biosciences,) and injected subcutaneously (sc), in a total volume of 100 μL, above the groin on the right hind limb. For MOLM-13 and KG-1 cells, a mixture (3:1, v:v) of PBS and Matrigel HC (BD Bioscience,) was used to inject 5 × 10^6 of cell per mouse subcutaneously (sc), in a total volume of 100 μL. When tumors reached 100-130 mm^3, mice were randomized into uniform groups (6-9 mice per group) and subsequently administered the compound. […] At the end of the experiment, mice were anesthetized with isofluran and blood samples for total cell counts and biochemistry were obtained by retro-orbital bleeding. […] 5×10^6 cells suspended in a mixture (3:1, v:v) of PBS and Matrigel were injected as described above. When the tumor volume reached ~120 mm^3, mice were randomized into uniform groups (5 mice per group) and the compound then administered. […] Tumor volume was monitored every second day and calculated using the formula: TV = (a^2×b)/2, where “a” is the short axis in millimeters, and “b” is the long axis in millimeters. Body weight was assessed every day. […]
Supplementary Table 10: Related to Figure 5C. […] The assessment total
performed on treatment day 15.
RBC – red blood cells, HGB – hemoglobin, HCT – hematocrit, WBC – white blood cells, LYMPH – lymphocytes, MONO
– monocytes, GRA – granulocytes, PLT – platelet, MPV – mean platelet volume.

[18] = system: MOLM-14 cells transduced with FLT3 TKD point mutations (D835Y, D835V and F691L); assay: MTS viability of MOLM-14 cells with FLT3 alleles; assay type: cell-based; settings: 72 h
[19] = system: KG-1; assay: MTS viability assay, 72 h; settings: Homo sapiens, KG-1, 72 h
Method: (§2) 15-25 ×10^3 of MV-4-11, MOLM-13, MOLM-14, MOLM-16, KG-1, Eol-1, SKM-1, PL-21, GDM-1, SKNO-1, RS4;11, Kasumi-3 and Kasumi-6 cells were seeded in 150 μL of culture medium onto individual wells in a 96 well plates, in triplicates. On the same day, 50 μL of medium containing tested inhibitor was added to the wells. Each compound was tested at 8 concentrations, in triplicates. As a negative control, the medium containing 0.1% DMSO was used. […] Staurosporine was used at 10 μM as a positive control. One the day of drug addition, basal signal from untreated cells was measured from in triplicate to determine time zero (T0). […] GI50 and LC50 values were extrapolated from a variable (four-parameter) dose-response curve fitted in GraphPad Prism.

[20] = system: KASUMI-3; assay: MTS viability assay, 72 h; settings: Kasumi-3, 72 h
Method: as §2

[21] = system: PL-21; assay: MTS viability assay, 72 h; settings: PL-21, 72 h
Method: as §2

PIM1, sequence (P11309 whole entry): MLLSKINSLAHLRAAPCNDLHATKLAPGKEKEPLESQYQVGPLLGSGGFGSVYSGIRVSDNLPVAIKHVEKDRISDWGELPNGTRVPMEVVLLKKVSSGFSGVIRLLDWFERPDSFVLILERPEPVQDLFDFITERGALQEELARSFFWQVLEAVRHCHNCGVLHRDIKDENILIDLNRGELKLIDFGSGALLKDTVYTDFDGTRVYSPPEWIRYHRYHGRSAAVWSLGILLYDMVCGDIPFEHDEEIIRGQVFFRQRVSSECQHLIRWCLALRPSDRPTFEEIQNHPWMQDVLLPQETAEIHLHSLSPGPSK

In the case of CC(C)n1c(C2CCNCC2)nc2c([N+](=O)[O-])c(Br)c(Br)cc21 [SEL24-B489, 5,6-dibromo-4-nitro-2-(piperidin-4-yl)-1-(propan-2-yl)-1H-1,3-benzodiazole], the Kd [1] is reported as 2 nM, the Kd [2] is reported as 37 nM and the Kd [3] is reported as 11 nM. For the same compound, the Kd [4] was 16 nM, the Kd [5] was 12 nM and the Kd [6] was 2.8 nM. It also gave a Kd [7] of 10 nM, a Kd [8] of 530 nM and a Kd [9] of 150 nM. It also gave a Kd [10] of 3200 nM, a Cmax ([11]; Sprague Dawley, 25 mg/kg) of 913 ng/mL and a Tmax ([11]; Sprague Dawley, 25 mg/kg) of 6.7 h. The AUC(0-t) ([11]; Sprague Dawley) was 19600 ng·h/mL, the half-life ([11]; Sprague Dawley) was 10 h and the bioavailability ([11]; Sprague-Dawley, 25 mg/kg, read-out: F (bioavailability)) was 52%. For the same compound, the half-life at 1 µM [12] was 2.6 h, the half-life at 1 µM [13] was 9.9 h and the half-life at 1 µM [14] was 7.2 h. For the same compound, the half-life at 1 µM [15] was 21.1 h, the IC50 [16] was 10000 nM and the GRA ([17]; SEL24-B489 25 mg/kg) was 42.2%. It also gave an HCT ([17]; SEL24-B489 25 mg/kg) of 48.8%, an HGB ([17]; SEL24-B489 25 mg/kg) of 14.6 g/dL and an LYMPH ([17]; SEL24-B489 25 mg/kg) of 47.2%. For the same compound, the MONO ([17]; SEL24-B489 25 mg/kg) was 10.6%, the MPV ([17]; SEL24-B489 25 mg/kg) was 6.1 μm3 and the PLT ([17]; SEL24-B489 25 mg/kg) was 1016 103/mm3. The RBC ([17]; SEL24-B489 25 mg/kg) was 9.8 106/mm3, the WBC ([17]; SEL24-B489 25 mg/kg) was 3.1 103/mm3 and the GRA ([17]; SEL24-B489 50 mg/kg) was 49.1%. The HCT ([17]; SEL24-B489 50 mg/kg) was 47.4%, the HGB ([17]; SEL24-B489 50 mg/kg) was 14.4 g/dL and the LYMPH ([17]; SEL24-B489 50 mg/kg) was 40.3%. For the same compound, the MONO ([17]; SEL24-B489 50 mg/kg) was 10.5%, the MPV ([17]; SEL24-B489 50 mg/kg) was 5.7 μm3 and the PLT ([17]; SEL24-B489 50 mg/kg) was 1286 103/mm3. The RBC ([17]; SEL24-B489 50 mg/kg) was 9.6 106/mm3, the WBC ([17]; SEL24-B489 50 mg/kg) was 4.9 103/mm3 and the “viability of MOLM-14 cells with FLT3-TKD mutants versus FLT3-ITD or parental cells” value [18] was “neither of the FLT3 TKD point mutations decreased the cellular sensitivity”. It also gave a GI50 [19] of 67 nM, a CC50 ([19]; read-out: LC50) of 2440 nM and a GI50 [20] of 633 nM. The CC50 ([20]; read-out: LC50) was 2330 nM and the GI50 [21] was 1710 nM.
